{"source": "patent US12679801B2", "about": "“Amino lipid and preparation method and application thereof” (Shenzhen MagicRNA Biotechnology Co., Ltd., priority 2022, dated 2026)", "key": {"[1]": {"system": "HeLa cells", "test": "In-vitro evaluation of E7C71A9, Compound A, B, C as Luc-mRNA vector (Embodiment 27, Table 14)", "type": "cell-based", "conditions": "Luc-mRNA 100 ng/well, 16-20 h, relative to Lipofectamine3000, lipid:DSPC:cholesterol:PEG2000-DMG 43:10.5:45:1.5", "from_the_text": "• Cell line: HeLa cell line • Culture medium: 1640 […] supplemented with 10% fetal calf serum • Screening form: 96-well plate cell transfection • Detection: fluorescence intensity detection by a multifunctional microplate reader. According to manufacturer's instructions, Lipofectamine3000 was used as a positive control group. • Method: a pipette was used for sample addition. The shown content is the content of a single well of a 96-well plate.\n1. Synthesis of E7C71A9, Compound A, Compound B, and Compound C was performed as described above. And these four ionizable amino lipid compounds were respectively mixed with DSPC, cholesterol and PEG2000-DMG into absolute ethyl alcohol. according to a mole ratio of 43:10.5:45:1.5, The Luc-mRNA was dissolved into a sodium acetate buffer solution ([…], pH=5.0). The mixed lipid solution was taken out by a pipette, and was added into the Luc-mRNA solution to be sufficiently mixed. A proportion ratio of the ethyl alcohol solution to the sodium acetate buffer solution ([…], pH=5.0) was controlled to be 1:3, and a nanoparticle solution was prepared. A mass ratio of the amino lipid compound to luciferase mRNA (Luc mRNA) was about 10:1, and the mRNA consumption in each well was 100 ng.\n2. After the lipid nanoparticle solution was incubated for 30 min at room temperature, 100 μL of fresh resuspended HeLa cells (1×10^4 cells) were added into each well of a 96-well all-white ELISA plate. Then, the lipid nanoparticle solution was added into the 96-well plate (10 μL for each well) by a pipette. The solution was placed into a 37° C. incubator containing 5% CO2 to be incubated.\n3. After 16 h to 20 h of cell initial transfection, a substrate ONE-Glo™ Luciferase was added into cells at 100 μL/well, and after 2 min, detection was performed by a multifunctional or multimode microplate reader.\n4. The relative transfection efficiency was calculated as follows: Relative transfection efficiency (%)=fluorescence intensity of LNP/fluorescence intensity of Lipofectamine3000×100%."}, "[2]": {"system": "BMDC primary cells", "test": "Luc mRNA LNP transfection of the four amino lipids on BMDC primary cells (Embodiment 28, Table 15)", "type": "cell-based, C57BL/6 mice", "conditions": "Luc mRNA LNP 10 μL per well, 16 h, ONE-Glo Luciferase", "protocol": "Preparation method: the same as that described above.\n(§1) Animal preparation: 6-week-old female C57BL/6 mice with the body weight about 20 g were selected. The feeding environment was an SPF stage feeding room. Animal tests were strictly performed according to the guide of the national health institute and the animal ethics requirements.\n(§2) Cell acquisition: C57BL/6 mice were killed through cervical dislocation, and were soaked for 5 min in 75% ethyl alcohol. Dissection was performed to obtain thigh and calf tibiae of the mice. Attached muscles were removed to expose sclerotin. Then, bone marrow in tibiae was blown out by using a 1 mL injector sucked with PBS. After the bone marrow was blown away, impurities were filtered away by a 50 μm filter screen. A red blood cell lysis buffer (3-4 mL) was added into an obtained filtrate. Then, after placement for 5 min, 800 g centrifugation was performed for 5 min to remove the supernatant. The obtained cells were placed into a 1640 culture medium (containing 10% fetal calf serum, 20 ng/mL GMCSF and 10 ng/ml IL4) to be resuspended, and were inoculated into a 6-well plate at an inoculation density of 100000 cells/ml culture medium. The materials were placed into a 37° C. cell incubator containing 5% CO2. Half liquid change was performed once every 2 days. Suspended cells and loose wall attached cells were collected on the seventh day, and were per well, and the volume of a culture medium was 100 μL.\n(§3) Cell transfection: lipid nanoparticles coated with luciferase mRNA were added into a 96-well all-white ELISA plate laid with primary cells. The adding volume of the mRNA lipid nanoparticles in each well was controlled to be 10 μL. Then, the materials were put into a 37° C. incubator containing 5% CO2 for 16 h.\nTransfection efficiency detection: 20 μL of a substrate ONE-Glo™ Luciferase was added into each well of a 96-well all-white ELISA plate. After 1 min, detection was performed by a multifunctional or multimode microplate reader. DLin-MC3 was used as a control."}, "[3]": {"system": "endosome/lysosome", "conditions": "background statement; cited from earlier work"}, "[4]": {"system": "BMDC primary cells", "test": "Luc mRNA LNP transfection on BMDC primary cells (Embodiment 13, Table 3)", "type": "cell-based, C57BL/6 mice", "conditions": "16 h, ONE-Glo Luciferase", "protocol": "Preparation method: the same as that described in Embodiment 7.\nas §1, §2, §3\nTransfection efficiency detection: 20 μL of a substrate ONE-Glo™ Luciferase was added into each well of a 96-well all-white ELISA plate. After 1 min, detection was performed by a multifunctional or multimode microplate reader."}, "[5]": {"system": "B16-OVA melanoma cells", "test": "OVA mRNA LNP vaccine, in-vivo immunity and tumor treatment (Embodiment 15)", "set-up": "species or system C57BL/6 mice", "conditions": "B16-OVA tumor-bearing mice, two intramuscular injections of LNP with 1 μg OVA-mRNA, 7 days apart", "protocol": "Preparation method: the amino lipid compounds of the disclosure, DSPC, cholesterol and PEG2000-DMG were mixed according to a mole ratio of 50:10:38.5:1.5 and were dissolved in absolute ethyl alcohol. OVA mRNA was dissolved in a sodium acetate buffer solution (50 nM, pH=4.0). The obtained ethyl alcohol solution and the acetate buffer solution […] were mixed in a micro-fluidic chip according to a volume ratio of 1:3 by using a micro-fluidic preparation system to obtain lipid nanoparticles. Then, dialysis was performed for 6 h under the conditions of 1×PBS and temperature was controlled at 4° C. by using a dialysis cassettes or box (MWCO 20,000). Filtration was performed by a 0.22 μm microporous filtering membrane prior to use. The mass ratio of the amino lipid compound to OVA mRNA was about 10:1.\n(§4) Animal preparation: 5-6-week-old female C57BL/6 mice with the body weight about 18 to 20 g were selected. The feeding environment was an SPF stage feeding room. Animal tests were strictly performed according to the guide of the national health institute and the animal ethics requirements.\n(§5) In-vivo delivery: B16-OVA melanoma cells (1.5×10^5) were injected to the outer thighs of the mice through subcutaneous injection. When the tumor grew to 50 mm^3 (on the about 6th or 7th day after tumor inoculation), the mice began to inoculated vaccines, the animals were subjected to twice immunization through intramuscular injection of an LNP preparation containing 1 μg OVA-mRNA. An interval between first and second injections was 7 days. The tumor growth was measured for 3 times every week by a digital display calliper, and a calculation formula was […]. When the tumor size reached 1500 mm^3, the mice received euthanasia. Additionally, 60% of mice (E7C71A9 group) and 40% of mice (E6C71A12 group) respectively reached the complete relieving effect."}, "[6]": {"system": "BMDC primary cells", "test": "Luc mRNA LNP transfection on BMDC primary cells (Embodiment 21, Table 9)", "type": "cell-based, C57BL/6 mice", "conditions": "16 h, ONE-Glo Luciferase", "protocol": "Preparation method: the same as that in Embodiment 17.\nAnimal preparation: 6-week-old female C57BL/6 mice with the body weight about 20 g were selected. A feeding environment was an SPF stage feeding room. Animal tests were strictly performed according to the guide of the national health institute and the animal ethics requirements.\nas §2, with “to remove a supernatant. The” for “to remove the supernatant. The”, “and 10 ng/mL IL4) to” for “and 10 ng/ml IL4) to”, “and were inoculated to a 96-well all-white ELISA plate at the inoculation density of 20000 cells per well,” for “and were per well,”\nas §3, with “white” for “all-white”\nTransfection efficiency detection: 20 μL of a substrate ONE-Glo™ Luciferase was added into each well of a 96-well all-white ELISA plate, and after 1 min, detection was performed by a multifunctional or multimode microplate reader."}, "[7]": {"system": "B16-OVA melanoma cells", "test": "OVA mRNA LNP vaccine, in-vivo immunity and tumor treatment (Embodiment 23)", "set-up": "species or system C57BL/6 mice", "conditions": "B16-OVA tumor-bearing mice, two intramuscular injections of LNP with 5 μg OVA-mRNA, 7 days apart", "protocol": "Preparation method: the amino lipid compounds of the disclosure, DSPC, cholesterol and PEG2000-DMG were mixed according to a mole ratio of 50:10:38.5:1.5 in absolute ethyl alcohol. OVA mRNA was dissolved in a sodium acetate buffer solution (50 nM, pH=4.0). The ratio of the ethyl alcohol solution to the acetate buffer solution (50 nM, pH=4.0) was controlled to be 1:3 by using two micro-injection pumps to prepare a coarse solution of the lipid nanoparticles in a micro-fluidic chip. Then, dialysis was performed for 6 h under the conditions of 1×PBS and temperature control at 4° C. by using a dialysis cassettes or box (MWCO 20,000). Before use, filtration was performed by a 0.22 μm microporous filtering membrane. A mass ratio of the amino lipid compound to OVA mRNA was about 8:1.\nas §4\nas §5, with “containing 5” for “containing 1”, “euthanasia.” for “euthanasia. Additionally, 60% of mice (E7C71A9 group) and 40% of mice (E6C71A12 group) respectively reached the complete relieving effect.”"}}}
{"compound": "CCCCCCCCCCC(CCOC(=O)C(CCCCCC)CCCCCCCC)OC(=O)CCCN(C)C", "note": "(stereo not shown) [Compound A, 3-((4-(dimethylamino)butanoyl)oxy)tridecyl 2-hexyldecanoate]", "values": [{"measurement": "Relative Transfection Efficiency", "setting": "[1]", "value": 0.62}, {"measurement": "Fluorescence intensity (transfection expression intensity)", "setting": "[2]", "value": "4.9E+04"}]}
{"compound": "CCCCCCCCCCC(CCCOC(=O)C(CCCCCC)CCCCCCCC)OC(=O)CCCN(C)C", "note": "(stereo not shown) [Compound B]", "values": [{"measurement": "Relative Transfection Efficiency", "setting": "[1]", "value": 0.45}, {"measurement": "Fluorescence intensity (transfection expression intensity)", "setting": "[2]", "value": "2.5E+04"}]}
{"compound": "CCCCCCCCCCC(CCCCOC(=O)C(CCCCCC)CCCCCCCC)OC(=O)CCCN(C)C", "note": "(stereo not shown) [Compound C]", "values": [{"measurement": "Relative Transfection Efficiency", "setting": "[1]", "value": 0.39}, {"measurement": "Fluorescence intensity (transfection expression intensity)", "setting": "[2]", "value": "9.3E+03"}]}
{"compound": "CCCCC/C=C\\C/C=C\\CCCCCCCCC(CCCCCCCC/C=C\\C/C=C\\CCCCC)OC(=O)CCCN(C)C", "note": "[DLin-MC3, DLin-MC3-DMA]", "values": [{"measurement": "RNA that escapes from the endosome/lysosome", "setting": "[3]", "value": "1%-4%"}]}
{"compound": "CCCCCCCCCC(COC(=O)C(CCCCCC)CCCCCCCC)OC(=O)CCCCCN(C)C", "note": "(stereo not shown) [E6C71A12]", "values": [{"measurement": "Luciferase luminescence intensity", "setting": "[4]", "value": 7.3, "unit": "E+ 04"}, {"measurement": "mice that reached the complete relieving effect", "setting": "[5]", "value": 40, "unit": "%"}, {"measurement": "result (survival curve, FIG. 4) compared with MC3 group", "setting": "[5]", "value": "obviously superior to that of MC3 group"}, {"measurement": "tumor growth speed compared with MC3 group (FIG. 3)", "setting": "[5]", "value": "obviously lower than that of MC3 group"}]}
{"compound": "CCCCCCCCCCC(COC(=O)C(CCCCCC)CCCCCCCC)OC(=O)CCCN(C)C", "note": "(stereo not shown) [E7C71A9, 2-((4-(Dimethylamino)Butanoyl)Oxy) Dodecyl 2-Hexyldecanoate]", "values": [{"measurement": "Luciferase luminescence intensity", "setting": "[4]", "value": 8.8, "unit": "E+ 04"}, {"measurement": "mice that reached the complete relieving effect", "setting": "[5]", "value": 60, "unit": "%"}, {"measurement": "result (survival curve, FIG. 4) compared with MC3 group", "setting": "[5]", "value": "obviously superior to that of MC3 group"}, {"measurement": "tumor growth speed compared with MC3 group (FIG. 3)", "setting": "[5]", "value": "obviously lower than that of MC3 group"}, {"measurement": "Relative Transfection Efficiency", "setting": "[1]", "value": 2.0}, {"measurement": "Fluorescence intensity (transfection expression intensity)", "setting": "[2]", "value": "8.8E+04"}]}
{"compound": "CCCCCCCCCCC(COC(=O)C(CCCCCCCC)CCCCCCCC)OC(=O)CCCCN(C)C", "note": "(stereo not shown) [E7C115A11]", "values": [{"measurement": "Luciferase luminescence intensity", "setting": "[6]", "value": "2.4E+05"}, {"measurement": "mice tumors completely disappeared", "setting": "[7]", "value": 90, "unit": "%"}, {"measurement": "survival rate", "setting": "[7]", "value": 100, "unit": "%"}, {"measurement": "survival rate compared with MC3 group (FIG. 6)", "setting": "[7]", "value": "obviously superior to that of MC3 group"}, {"measurement": "tumor growth speed compared with MC3 group (FIG. 5)", "setting": "[7]", "value": "obviously lower than that of MC3 group"}]}
